Laboratory results from patent publication US4275068A, “Lipid lowering alkylene glycols and ester derivatives thereof” (Siegfried AG, priority 1977, dated 1981).
Counter-ions that a name gives are not always drawn.

Experiments:
Toxicity on mice (LD50) = conditions: mouse
From the text: Toxicity values and activities of the above compounds (1) were investigated by animal tests in accordance with conventional methods as described, for example, in the above mentioned publications, and compared with the corresponding data of clofibrate, the well known cholesterol-lowering agent: […]

[1] = tested on: cholesterol content of the blood; assay: Cholesterol-lowering (dosis required for a 25% reduction of the cholesterol content of the blood); type: in vivo; conditions: dosis for 25% reduction of cholesterol content of the blood; mg/kg body weight; read-out: Cholesterol ED 25
From the text: The ED25 value, that is, the dosis in mg/kg body weight required for a 25% reduction of the cholesterol content of the blood, is 151 for clofibrate but better, i.e. lower, with all compounds (1) tested so far.

[2] = tested on: triglyceride content of the blood; assay: Triglyceride-lowering (dosis required for a 25% reduction of the triglyceride content of the blood); type: in vivo; conditions: dosis for 25% reduction of triglyceride content of the blood, mg/kg body weight; for ED25: read-out: Triglyceride ED 25
From the text: The ED25 value, in this instance the dosis in mg/kg body weight required for a 25% reduction of the triglyceride content of the blood, is better, i.e. lower, with all compounds (1) tested so far than the corresponding activity value of 22 of clofibrate.

Row | Structure (SMILES) | LD50 (Toxicity on mice (LD50); in vivo) [mg/kg] | ED25 [1] [mg/kg] | Triglyceride ED 25 [2] [mg/kg] | Triglyceride ED 25 ([2]; listed as clofibrate) [mg/kg] | LD50 (Toxicity on mice (LD50)) [mg/kg] | ED25 [2] [mg/kg]
1 | CCOC(=O)C(C)(C)Oc1ccc(Cl)cc1 [Clofibrate, reference compound] | 2180 | 151 | 222 | 22 | – | –
2 | OCCOc1ccc(Cc2ccc(Cl)cc2)cc1 [Example 1, 2-[4-(4'-chlorobenzyl)-phenoxy]-ethanol] | – | 80 | – | – | 3000 | < 50
3 | CCC(C)(CO)Oc1ccc(Cc2ccc(Cl)cc2)cc1 (stereo not drawn) [Example 2, 2-methyl-2-[4-(4'-chlorobenzyl)-phenoxy]-butanol] | – | 80 | – | – | 2960 | 14
4 | OCC(Oc1ccc(Cc2ccc(Cl)cc2)cc1)c1ccccc1 (stereo not drawn) [Example 3, 2-phenyl-2-[4-(4'-chlorobenzyl)-phenoxy]-ethanol] | – | > 100 | – | – | > 3000 | –
5 | O=C(OCCOc1ccc(Cc2ccc(Cl)cc2)cc1)c1cccnc1 [Example 4, Ester of nicotinic acid and 2-[4-(4'-chlorobenzyl)-phenoxy]-ethanol] | – | 41 | – | – | > 3000 | 70
6 | CCC(C)(COC(=O)c1cccnc1)Oc1ccc(Cc2ccc(Cl)cc2)cc1 (stereo not drawn) [Example 5, Hydrochloride of nicotinic acid ester of 2-methyl-2-[4-(4'-chlorobenzyl)-phenoxy]-butanol] | – | 30 | – | – | > 3000 | 40
7 | CC(=O)Oc1ccccc1C(=O)OCCOc1ccc(Cc2ccc(Cl)cc2)cc1 [Example 6, Acetylsalicylic acid ester of 2-[4-(4'-chlorobenzyl)-phenoxy]-ethanol] | – | 70 | – | – | > 3000 | > 100
